Measurements taken from PMC9404711 (Antibiotics, 2022).
In brackets after ≈: the same amount, converted by molar mass. Where two headings read alike, the source gives them in different places. Positions of bridges follow the written chain, without caps; N, C: chain ends. Non-standard residues stand in square brackets, D forms with d. Residues, ends and D or L forms follow the SMILES beside them. *: point of attachment. X1 = CC[C@H](C)CCCCC(=O)*; Dab = NCC[C@H](N)C(=O)O

Experiments:
[1] = test system: P. aeruginosa (ATCC 27853); type: cell-based, Pseudomonas aeruginosa
Description: (§1) The following bacteria were grown in cation-adjusted Muller-Hinton broth at 37 °C with shaking: A. baumannii (ATCC 19606), E. coli (ATCC 25922), K. pneumoniae (ATCC 13883), P. aeruginosa (ATCC 27853), and S. aureus (ATCC 29213).
(§2) The MIC experiments were performed in triplicate, as described in Jensen et al.. Briefly, all peptide stock solutions were prepared by dissolving each peptide in Milli-Q water to obtain a concentration of 10 mg/mL. A bacterial concentration of 10^6 CFU/mL was obtained through the dilution of an overnight culture (MHB-II medium). When the overnight culture was prepared, the OD was measured using a spectrophotometer and when an OD value between 0.2 and 0.4 was obtained, the culture was diluted to OD = 0.002. The MIC determination was carried out in 96-well polypropylene microtitre plates. […] A final bacterial inoculum of 5 × 10^5 CFU/mL per well was obtained by adding 50 μL bacterial suspension to the microtiter plates. The plates were incubated at 37 °C for 18–24 h. To verify the CFU, 10 μL of bacteria suspension was transferred to 990 μL 0.9 % saline solution, from which a 10-fold dilution was carried out. Then, 100 μL of the dilution was plated on an LB plate and left for bacterial growth overnight at 37 °C. Colistin and vancomycin were used as the positive controls.

[2] = test system: E. coli (ATCC 25922); type: cell-based, Escherichia coli
Description: as §1, §2

[3] = test system: A. baumannii (ATCC 19606); type: cell-based, Acinetobacter baumannii
Description: as §1, §2

[4] = test system: K. pneumoniae (ATCC 13883); type: cell-based, Klebsiella pneumoniae
Description: as §1, §2

[5] = test system: S. aureus (ATCC 29213); experiment: MIC determination, broth microdilution; type: cell-based, Staphylococcus aureus; conditions: for MIC SA: S. aureus ATCC 29213, MHB-II, 37 °C, 18–24 h, triplicate
Description: as §1, §2

[6] = Hydrophobicity by analytical RP-HPLC (%B at elution); type: physicochemical; conditions: chromatographic, analytical reversed-phase HPLC, Waters Symmetry C18 5 μm 4.6 × 250 mm; A: H2O + 0.1% TFA, B: 90:10 ACN-H2O + 0.1% TFA
Description: Peptide purity was determined as described previously by analytical RP-HPLC using a Waters 717 plus Autosampler, In-line Degasser AF, 600 Controller, and 2996 Photodiode Array Detector; the column used was a Waters Symmetry C18 column (5 μm, 4.6 mm × 250 mm, Milford, MA, USA). An aqueous acetonitrile (ACN) gradient with 0.1% TFA added (mixing eluent A: H2O + 0.1% TFA and eluent B: 90:10 ACN-H2O + 0.1% TFA) was employed using milli-Q water. Preparative RP-HPLC was performed by using a Waters XSelect Peptide CSH C18 OBDTM column (5 μm, 19 mm × 250 mm, Milford, MA, USA) with the same eluents as for analytical HPLC.
*Hydrophobicity as indicated by the percentage of mobile phase B (%B) at the peak elution time on analytical

[7] = P. aeruginosa ATCC 27853, MHB-II, inoculum 5 × 10^5 CFU/mL, 37 °C, 18–24 h, triplicate
[8] = E. coli ATCC 25922, MHB-II, inoculum 5 × 10^5 CFU/mL, 37 °C, 18–24 h, triplicate
[9] = A. baumannii ATCC 19606, MHB-II, inoculum 5 × 10^5 CFU/mL, 37 °C, 18–24 h, triplicate
[10] = K. pneumoniae ATCC 13883, MHB-II, inoculum 5 × 10^5 CFU/mL, 37 °C, 18–24 h, triplicate
[11] = value in brackets, P. aeruginosa ATCC 27853, MHB-II, 37 °C, 18–24 h, triplicate
[12] = value in brackets, E. coli ATCC 25922, MHB-II, 37 °C, 18–24 h, triplicate
[13] = value in brackets, A. baumannii ATCC 19606, MHB-II, 37 °C, 18–24 h, triplicate
[14] = value in brackets, K. pneumoniae ATCC 13883, MHB-II, 37 °C, 18–24 h, triplicate

CC[C@H](C)CCCCC(=O)N[C@@H](CCN)C(=O)N[C@H](C(=O)N[C@@H](CCN)C(=O)N[C@H]1CCNC(=O)[C@H]([C@@H](C)O)NC(=O)[C@H](CCN)NC(=O)[C@H](CCN)NC(=O)[C@H](CC(C)C)NC(=O)[C@@H](CC(C)C)NC(=O)[C@H](CCN)NC1=O)[C@@H](C)O [Colistin, reference compound] (X1-[Dab]T[Dab][Dab][Dab][dL]L[Dab][Dab]T; lactam 4-C (inferred); N-terminus assumed)
MIC PA ([1]; ATCC 27853): 0.4 µM | MIC PA [1, 7]: 0.5 µg/mL | MIC EC ([2]; ATCC 25922): 0.2 µM | MIC EC [2, 8]: 0.25 µg/mL | MIC AB [3, 9]: 0.25 µg/mL | MIC AB ([3]; ATCC 19606): 0.2 µM | MIC KP ([4]; ATCC 13883): 0.4 µM | MIC KP [4, 10]: 0.5 µg/mL

CN[C@H](CC(C)C)C(=O)N[C@H]1C(=O)N[C@@H](CC(N)=O)C(=O)N[C@H]2C(=O)N[C@H]3C(=O)N[C@H](C(=O)N[C@H](C(=O)O)c4cc(O)cc(O)c4-c4cc3ccc4O)[C@H](O)c3ccc(c(Cl)c3)Oc3cc2cc(c3O[C@@H]2O[C@H](CO)[C@@H](O)[C@H](O)[C@H]2O[C@H]2C[C@](C)(N)[C@H](O)[C@H](C)O2)Oc2ccc(cc2Cl)[C@H]1O [Vancomycin, reference compound]
MIC SA ([5]; inoculum 5 × 10^5 CFU/mL): 0.5 µg/mL | MIC ([5]; Staphylococcus aureus, ATCC29213, read-out: MIC SA): 0.35 µM (≈ 0.507 µg/mL)

CCCCCCCCCCCC(=O)N[C@H](CCCCN)C(=O)N[C@H](CCCCN)C(=O)N[C@H](CC(C)C)C(=O)N[C@H](Cc1ccccc1)C(=O)N[C@H](CCCCN)C(=O)N[C@H](CCCCN)C(=O)N[C@@H](C(=O)N[C@H](CC(C)C)C(=O)N1CCCC[C@H](C(N)=O)NC(=O)[C@@H](Cc2ccc(O)cc2)NC(=O)[C@@H](CCCNC(=N)N)NC(=O)C1)[C@H](C)CC [compound 11]
MIC PA [1, 7]: 4 µg/mL | MIC PA [1, 11]: 2.3 µM | MIC EC [2, 8]: 4 µg/mL | MIC EC [2, 12]: 2.3 µM | MIC SA ([5]; inoculum 5 × 10^5 CFU/mL): 4 µg/mL | MIC SA ([5]; value in brackets): 2.3 µM | MIC AB [3, 9]: 4 µg/mL | MIC AB [3, 13]: 2.3 µM | %B (hydrophobicity: percentage of mobile phase B at the peak elution time) [6]: 66.2 %B | MIC KP [4, 10]: 8 µg/mL | MIC KP [4, 14]: 4.6 µM

CCCCCCCCCCCCCC(=O)N[C@H](CCCCN)C(=O)N[C@H](CCCCN)C(=O)N[C@H](CC(C)C)C(=O)N[C@H](Cc1ccccc1)C(=O)N[C@H](CCCCN)C(=O)N[C@H](CCCCN)C(=O)N[C@@H](C(=O)N[C@H](CC(C)C)C(=O)N1CCCC[C@H](C(N)=O)NC(=O)[C@@H](Cc2ccc(O)cc2)NC(=O)[C@@H](CCCNC(=N)N)NC(=O)C1)[C@H](C)CC [compound 12]
MIC PA [1, 7]: 16 µg/mL | MIC PA [1, 11]: 9.3 µM | MIC EC [2, 8]: 8 µg/mL | MIC EC [2, 12]: 4.6 µM | MIC SA ([5]; inoculum 5 × 10^5 CFU/mL): 8 µg/mL | MIC SA ([5]; value in brackets): 4.6 µM | MIC AB [3, 9]: 16 µg/mL | MIC AB [3, 13]: 9.3 µM | %B (hydrophobicity: percentage of mobile phase B at the peak elution time) [6]: 70.0 %B | MIC KP [4, 10]: 4 µg/mL | MIC KP [4, 14]: 2.3 µM

CCCCCCCCCCCC(=O)N[C@H](CCCCN)C(=O)N[C@H](CCCCN)C(=O)N[C@H](CC(C)C)C(=O)N[C@H](Cc1ccccc1)C(=O)N[C@H](CCCCN)C(=O)N[C@H](CCCCN)C(=O)N1CCCC[C@H](C(N)=O)NC(=O)[C@@H](Cc2ccc(O)cc2)NC(=O)[C@@H](CCCNC(=N)N)NC(=O)[C@@H](CC(C)C)NC(=O)[C@@H]([C@H](C)CC)NC(=O)C1 [compound 17]
MIC PA [1, 7]: 8 µg/mL | MIC PA [1, 11]: 4.8 µM | MIC EC [2, 8]: 8 µg/mL | MIC EC [2, 12]: 4.7 µM | MIC SA ([5]; inoculum 5 × 10^5 CFU/mL): 4 µg/mL | MIC SA ([5]; value in brackets): 2.4 µM | MIC AB [3, 9]: 4 µg/mL | MIC AB [3, 13]: 2.4 µM | %B (hydrophobicity: percentage of mobile phase B at the peak elution time) [6]: 65.5 %B
